Experimental data from patent US20120029187A1, “HALOALKYLSULFONANILIDE DERIVATIVE” (Nissan Chemical Industries, Ltd., priority 2009, published 2012).

What was measured:
Assay type in all cases: in vivo
[1] = test system: water foxtail; assay: Test Example 4: herbicidal effect in foliage treatment; conditions: dose 6.3 g/a, three weeks after application
How it was run: (§1)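 Herbicidal effect was rated on an evaluation scale three weeks after treatment. Plants had been raised 14 days at 25 to 30° C in sterilized diluvial soil, then received foliar sprays of emulsifiable concentrate diluted in water at predetermined doses expressed as g per are.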

[2] = test system: giant foxtail; assay: as above; conditions: dose 6.3 g/a, three weeks after application
How it was run: as §1

[3] = test system: posumbu knotweed; assay: as above; conditions: dose 6.3 g/a, three weeks after application
How it was run: as §1

[4] = test system: wild oat; assay: as above; conditions: dose 6.3 g/a, three weeks after application
How it was run: as §1

[5] = test system: velvetleaf; assay: as above; conditions: dose 6.3 g/a, three weeks after application
How it was run: as §1

[6] = test system: common chickweed; assay: as above; conditions: dose 6.3 g/a, three weeks after application
How it was run: as §1

[7] = test system: redroot pigweed; assay: as above; conditions: dose 6.3 g/a, three weeks after application
How it was run: as §1

[8] = test system: common lambsquater; assay: as above; conditions: dose 6.3 g/a, three weeks after application
How it was run: as §1

[9] = test system: large crabgrass; assay: as above; conditions: dose 6.3 g/a, three weeks after application
How it was run: as §1

[10] = test system: barnyardgrass; assay: as above; conditions: dose 6.3 g/a, three weeks after application
How it was run: as §1

[11] = test system: common ragweed; assay: as above; conditions: dose 6.3 g/a, three weeks after application
How it was run: as §1

[12] = test system: beadstraw; assay: as above; conditions: dose 6.3 g/a, three weeks after application
How it was run: as §1

[13] = test system: Italian ryegrass; assay: as above; conditions: dose 6.3 g/a, three weeks after application
How it was run: as §1

[14] = test system: ducksalad; assay: Test Example 1: herbicidal effects in preemergence treatment under submerged conditions; conditions: dose 2.52 g/a
How it was run: (§2)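 Score 0–5 by mortality (5: ≥90%; 0: <5%), read 3 weeks post-application. Paddy-type cups: alluvial soil under 4 cm water, weeds seeded plus transplanted 2.5-leaf rice; diluted EC dosed onto water surface same day as sowing, g/a basis; greenhouse 25 to 30° C.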

[15] = test system: bulrush; assay: as above; conditions: dose 2.52 g/a
How it was run: as §2

[16] = test system: barnyardgrass; assay: as above; conditions: dose 2.52 g/a
How it was run: as §2

[17] = test system: transplanted rice; assay: Test Example 1: preemergence treatment under submerged conditions, effect on crop; conditions: dose 2.52 g/a
How it was run: as §2

[18] = test system: water foxtail; assay: Test Example 3: herbicidal effects in soil treatment; conditions: dose 6.3 g/a
How it was run: (§3)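 Seeds were sown in sterilized diluvial soil and covered with about 1.5 cm of soil. Compounds, formulated as emulsifiable concentrates and diluted with water, were sprayed evenly over the soil surface at set doses in g/a. Herbicidal effect was scored on a rating scale three weeks later.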

[19] = test system: giant foxtail; assay: as above; conditions: dose 6.3 g/a
How it was run: as §3

[20] = test system: posumbu knotweed; assay: as above; conditions: dose 6.3 g/a
How it was run: as §3

[21] = test system: wild oat; assay: as above; conditions: dose 6.3 g/a
How it was run: as §3

[22] = test system: velvetleaf; assay: as above; conditions: dose 6.3 g/a
How it was run: as §3

[23] = test system: common chickweed; assay: as above; conditions: dose 6.3 g/a
How it was run: as §3

[24] = test system: redroot pigweed; assay: as above; conditions: dose 6.3 g/a
How it was run: as §3

[25] = test system: common lambsquater; assay: as above; conditions: dose 6.3 g/a
How it was run: as §3

[26] = test system: large crabgrass; assay: as above; conditions: dose 6.3 g/a
How it was run: as §3

[27] = test system: barnyardgrass; assay: as above; conditions: dose 6.3 g/a
How it was run: as §3

[28] = test system: common ragweed; assay: as above; conditions: dose 6.3 g/a
How it was run: as §3

[29] = test system: Italian ryegrass; assay: as above; conditions: dose 6.3 g/a
How it was run: as §3

[30] = test system: ducksalad; assay: Test Example 2: herbicidal effects during the vegetation period under submerged conditions; conditions: treatment during the vegetation period under submerged conditions; dose 2.52 g/a
How it was run: (§4)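 Barnyardgrass, bulrush and ducksalad were co-sown in alluvial soil flooded to 4 cm and grown in a greenhouse at 25 to 30° C. At the 1- or 2-leaf stage, water-diluted emulsifiable concentrates went onto the water surface at set doses (g/a). Herbicidal effect was scored three weeks later on a graded scale.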

[31] = test system: bulrush; assay: as above; conditions: treatment during the vegetation period under submerged conditions; dose 2.52 g/a
How it was run: as §4

[32] = test system: barnyardgrass; assay: as above; conditions: treatment during the vegetation period under submerged conditions; dose 2.52 g/a
How it was run: as §4

SMILES	G: water foxtail, herbicidal effect [1]	E: giant foxtail, herbicidal effect [2]	M: posumbu knotweed, herbicidal effect [3]	F: wild oat, herbicidal effect [4]	I: velvetleaf, herbicidal effect [5]	N: common chickweed, herbicidal effect [6]	K: redroot pigweed, herbicidal effect [7]	L: common lambsquater, herbicidal effect [8]	D: large crabgrass, herbicidal effect [9]	A: barnyardgrass, herbicidal effect [10]	J: common ragweed, herbicidal effect [11]	O: beadstraw, herbicidal effect [12]	H: Italian ryegrass, herbicidal effect [13]	C: ducksalad, herbicidal effect (evaluation scale 0-5) [14]	B: bulrush, herbicidal effect (evaluation scale 0-5) [15]	A: barnyardgrass, herbicidal effect (evaluation scale 0-5) [16]	a: transplanted rice, effect on crop (evaluation scale 0-5) [17]	G: water foxtail, herbicidal effect (evaluation scale 0-5) [18]	E: giant foxtail, herbicidal effect (evaluation scale 0-5) [19]	M: posumbu knotweed, herbicidal effect (evaluation scale 0-5) [20]	other results
CCOC(=O)N(c1ccccc1CN1CCOCC1=O)S(=O)(=O)C(F)(F)F [Compound I-2, 4-[2-(N-ethoxycarbonyl-N-trifluoromethanesulfonyl)aminobenzyl]-1,4-oxazinan-3-one]	5 (mortality of 90% or above (nearly complete death))	5 (mortality of 90% or above (nearly complete death))	4 (mortality of at least 70% and less than 90%)	3 (mortality of at least 40% and less than 70%)	5 (mortality of 90% or above (nearly complete death))	4 (mortality of at least 70% and less than 90%)	3 (mortality of at least 40% and less than 70%)	4 (mortality of at least 70% and less than 90%)	5 (mortality of 90% or above (nearly complete death))	5 (mortality of 90% or above (nearly complete death))	3 (mortality of at least 40% and less than 70%)	5 (mortality of 90% or above (nearly complete death))	4 (mortality of at least 70% and less than 90%)	5 (mortality of 90% or above (nearly complete death))	5 (mortality of 90% or above (nearly complete death))	5 (mortality of 90% or above (nearly complete death))	1 (mortality of at least 5% and less than 20%)	5 (mortality of 90% or above (nearly complete death))	5 (mortality of 90% or above (nearly complete death))	5 (mortality of 90% or above (nearly complete death))	F: wild oat, herbicidal effect (evaluation scale 0-5) [21]: 3 (mortality of at least 40% and less than 70%); I: velvetleaf, herbicidal effect (evaluation scale 0-5) [22]: 5 (mortality of 90% or above (nearly complete death)); N: common chickweed, herbicidal effect (evaluation scale 0-5) [23]: 5 (mortality of 90% or above (nearly complete death)); K: redroot pigweed, herbicidal effect (evaluation scale 0-5) [24]: 5 (mortality of 90% or above (nearly complete death)); L: common lambsquater, herbicidal effect (evaluation scale 0-5) [25]: 5 (mortality of 90% or above (nearly complete death)); D: large crabgrass, herbicidal effect (evaluation scale 0-5) [26]: 5 (mortality of 90% or above (nearly complete death)); A: barnyardgrass, herbicidal effect (evaluation scale 0-5) [27]: 5 (mortality of 90% or above (nearly complete death)); J: common ragweed, herbicidal effect (evaluation scale 0-5) [28]: 5 (mortality of 90% or above (nearly complete death)); H: Italian ryegrass, herbicidal effect (evaluation scale 0-5) [29]: 5 (mortality of 90% or above (nearly complete death)); C: ducksalad, herbicidal effect (evaluation scale 0-5) [30]: 5 (mortality of 90% or above (nearly complete death)); B: bulrush, herbicidal effect (evaluation scale 0-5) [31]: 5 (mortality of 90% or above (nearly complete death)); A: barnyardgrass, herbicidal effect (evaluation scale 0-5) [32]: 5 (mortality of 90% or above (nearly complete death))
CC(C)COC(=O)N(c1ccccc1CN1CCOCC1=O)S(=O)(=O)C(F)(F)F [Compound I-3]	5 (mortality of 90% or above (nearly complete death))	4 (mortality of at least 70% and less than 90%)	0 (mortality of less than 5% (almost ineffective))	0 (mortality of less than 5% (almost ineffective))	5 (mortality of 90% or above (nearly complete death))	4 (mortality of at least 70% and less than 90%)	2 (mortality of at least 20% and less than 40%)	4 (mortality of at least 70% and less than 90%)	5 (mortality of 90% or above (nearly complete death))	5 (mortality of 90% or above (nearly complete death))	4 (mortality of at least 70% and less than 90%)	4 (mortality of at least 70% and less than 90%)	3 (mortality of at least 40% and less than 70%)	5 (mortality of 90% or above (nearly complete death))	5 (mortality of 90% or above (nearly complete death))	5 (mortality of 90% or above (nearly complete death))	0 (mortality of less than 5% (almost ineffective))	5 (mortality of 90% or above (nearly complete death))	5 (mortality of 90% or above (nearly complete death))	3 (mortality of at least 40% and less than 70%)	F: wild oat, herbicidal effect (evaluation scale 0-5) [21]: 0 (mortality of less than 5% (almost ineffective)); I: velvetleaf, herbicidal effect (evaluation scale 0-5) [22]: 5 (mortality of 90% or above (nearly complete death)); N: common chickweed, herbicidal effect (evaluation scale 0-5) [23]: 5 (mortality of 90% or above (nearly complete death)); K: redroot pigweed, herbicidal effect (evaluation scale 0-5) [24]: 3 (mortality of at least 40% and less than 70%); L: common lambsquater, herbicidal effect (evaluation scale 0-5) [25]: 5 (mortality of 90% or above (nearly complete death)); D: large crabgrass, herbicidal effect (evaluation scale 0-5) [26]: 5 (mortality of 90% or above (nearly complete death)); A: barnyardgrass, herbicidal effect (evaluation scale 0-5) [27]: 5 (mortality of 90% or above (nearly complete death)); J: common ragweed, herbicidal effect (evaluation scale 0-5) [28]: 4 (mortality of at least 70% and less than 90%); H: Italian ryegrass, herbicidal effect (evaluation scale 0-5) [29]: 5 (mortality of 90% or above (nearly complete death)); C: ducksalad, herbicidal effect (evaluation scale 0-5) [30]: 5 (mortality of 90% or above (nearly complete death)); B: bulrush, herbicidal effect (evaluation scale 0-5) [31]: 5 (mortality of 90% or above (nearly complete death)); A: barnyardgrass, herbicidal effect (evaluation scale 0-5) [32]: 5 (mortality of 90% or above (nearly complete death))
